Tests used:
[1] = molecular target: T1, RdSqgA (Roseobacter denitrificans, UniProt Q167F5); experiment: LC-MS of SQ formation; assay type: biochemical; details: 200 mM NH4HCO3 pH 7.0, room temperature overnight
T1 sequence (Q167F5 1-366): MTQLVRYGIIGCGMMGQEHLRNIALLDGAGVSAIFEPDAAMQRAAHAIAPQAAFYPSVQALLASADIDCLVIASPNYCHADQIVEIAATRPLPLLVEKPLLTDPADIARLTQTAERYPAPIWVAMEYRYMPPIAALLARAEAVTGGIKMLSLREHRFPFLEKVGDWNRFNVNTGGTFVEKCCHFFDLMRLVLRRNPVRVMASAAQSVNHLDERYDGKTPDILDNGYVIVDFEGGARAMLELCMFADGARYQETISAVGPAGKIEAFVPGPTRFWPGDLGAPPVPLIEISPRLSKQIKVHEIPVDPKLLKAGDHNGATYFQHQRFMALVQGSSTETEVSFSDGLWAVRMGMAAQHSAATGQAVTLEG

[2] = molecular target: T2, CtSqgA (Chaetoceros tenuissimus, UniProt A0AAD3HCU0); experiment: sulfoquinovosidase activity assay; assay type: biochemical; details: details only in supplement
T2 sequence (A0AAD3HCU0 1-457): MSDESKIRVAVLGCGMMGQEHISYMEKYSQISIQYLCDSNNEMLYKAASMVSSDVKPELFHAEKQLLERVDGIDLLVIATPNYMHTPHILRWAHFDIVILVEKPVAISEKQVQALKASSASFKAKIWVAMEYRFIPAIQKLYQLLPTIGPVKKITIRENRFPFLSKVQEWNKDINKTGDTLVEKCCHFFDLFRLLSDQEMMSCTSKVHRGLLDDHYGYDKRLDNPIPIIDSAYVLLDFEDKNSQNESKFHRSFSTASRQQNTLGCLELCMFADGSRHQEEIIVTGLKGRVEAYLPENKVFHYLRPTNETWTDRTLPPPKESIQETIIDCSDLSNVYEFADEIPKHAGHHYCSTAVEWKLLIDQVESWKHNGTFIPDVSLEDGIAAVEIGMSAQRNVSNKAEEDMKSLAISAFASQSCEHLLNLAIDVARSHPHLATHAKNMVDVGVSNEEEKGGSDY

[3] = molecular target: T3, PpSqgA (Porphyridium purpureum, UniProt A0A5J4YS60); experiment: sulfoquinovosidase activity assay; assay type: biochemical; details: details only in supplement
T3 sequence (A0A5J4YS60 1-369): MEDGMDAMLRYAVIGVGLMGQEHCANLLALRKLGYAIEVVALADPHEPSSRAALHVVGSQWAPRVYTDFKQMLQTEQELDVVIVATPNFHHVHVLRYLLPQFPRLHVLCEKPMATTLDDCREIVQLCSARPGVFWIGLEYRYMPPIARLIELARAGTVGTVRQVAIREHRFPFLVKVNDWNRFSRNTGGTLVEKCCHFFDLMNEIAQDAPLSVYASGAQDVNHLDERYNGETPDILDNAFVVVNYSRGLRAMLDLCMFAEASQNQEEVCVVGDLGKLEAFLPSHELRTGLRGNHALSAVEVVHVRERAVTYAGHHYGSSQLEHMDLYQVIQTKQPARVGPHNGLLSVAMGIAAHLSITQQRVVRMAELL

[4] = substrate: O=[N+]([O-])c1ccc(O[C@H]2O[C@H](CS(=O)(=O)O)[C@@H](O)[C@H](O)[C@H]2O)cc1; experiment: purified protein; details: 10 mM phosphate buffer pH 7.5 (general assay buffer)

`NC(=O)c1ccc[n+]([C@@H]2O[C@H](COP(=O)(O)OP(=O)(O)OC[C@H]3O[C@@H](n4cnc5c(N)ncnc54)[C@H](O)[C@@H]3O)[C@@H](O)[C@H]2O)c1` [NAD^+] was tested, and the “LC-MS of SQ formation” value ([1]; 20 uM SQGro) was “RdSqgA, revealed it to be an NAD^+-dependent sulfoquinovosidase”.

`O=S(=O)(O)C[C@H]1O[C@H](OC[C@H](O)CO)[C@H](O)[C@@H](O)[C@@H]1O` [SQGro] was tested, and the “sulfoquinovosidase activity assay (SQ release)” value [2] was “These homologs have sulfoquinovosidase activity, allowing the liberation of SQ”, the “sulfoquinovosidase activity assay (SQ release)” value [3] was “These homologs have sulfoquinovosidase activity, allowing the liberation of SQ” and the “LC-MS of SQ formation” value ([1]; 10 mM NAD+) was “NAD^+-dependent sulfoquinovosidase that acts on SQGro to form SQ”.

B1: AmSqgH (Alteromonas macleodii ATCC 27126) (protein)
chain: MSNAFCVNEPEWNDIKAADITEQPFLSDDKTLIVPTQYGELSLSISQFGLRIQSNVNAADDFGMLTQAPERLSLVLSGDQSHSTLAAGDYRLEVFAAPLHFKLYKNDVLVQQSATDGHFVRQHRLPPFAKTDKGWLLSLELSYDEAVYGLGEKWGKLDKRGQLIRSYNHDALGVNAEKSYKNTPYAWSPEGWNLFVHTPAPVTHGVGYALWSQRAYVCLVEDNVLDMFLFHQDSPAKCLQTYSELTGFAPTPPTWSLGVILSKAYYKDADELLAVAREVREKNMPCDVITLDGRAWQDTDTRFAFEWDPKRYADPQPVIDELKALGFKICVWEYPMISVKNPLYKKAADKGWLIKDKRTGEAYRYEWDLSPFGEVLTPLPDSGILDFTHPEAYEFWKTSHKPLFDLGIDMIKADFGEQLEDDNMLSYSGDSGNRLHNVYSMLYNRCVYEAADAYCKTGPFLFSRSAWTGSQRYPSQWGGDPQADWHGLAASIRGSLSWGMSGGPFFATDIGGFYKDTRDAELYVRWAQASVFSAHMRLHGIGPREPWSYGDAASNAVFEALKLRYKLIPYLKETAEKASQTGLPVQRAMALAFPEQPLSHGFEQQFMCGDDLLVVPCVVPGGKIKYYLPKGKWIRFGTEEVVQGEQYREEILALNDVAVFIQKGSRIVMGPDVQHTDMDMSNTTHWPA
Work on B1 yielded a Km [4] of 13.0 ± 2.2 mM and a kcat [4] of 119 ± 19 s⁻¹.

From paper PMC12780224 (Nature Communications, 2025)
